Data reported in ChEMBL document CHEMBL3997835, “Isoquinoline alkaloids from Coptis japonica stimulate the myoblast differentiation via p38 MAP-kinase and Akt signaling pathway” (Bioorg Med Chem Lett, 2017).
The source made the active and inactive calls. No cut-off for these calls is given here.

Key:
[1] = system: C2C12; test: Induction of MyoD transcriptional activity in mouse C2C12 cells expressing MyoD-responsive 4RTK-Luc at 10 nM after 24 hrs by luciferase reporter gene assay; type: functional, cell-based
[2] = system: C2C12; test: Cytotoxicity against mouse C2C12 cells at 10 nM up to 24 hrs; type: cell-based; conditions: c2c12, 24 h, 0.01 µM
[3] = system: C2C12; test: Induction of myoblast differentiation in mouse C2C12 cells expressing MyoD-responsive 4RTK-Luc assessed as increase in MHC protein expression at 10 nM after 2 days by Western blot analysis; type: functional, cell-based
[4] = system: C2C12; test: Induction of myoblast differentiation in mouse C2C12 cells assessed as increase in MHC protein expression after 2 days by Western blot analysis; type: functional, cell-based
[5] = system: C2C12; test: Induction of myoblast differentiation in mouse C2C12 cells assessed as increase in MyoD protein expression after 2 days by Western blot analysis; type: functional, cell-based
[6] = system: C2C12; test: Induction of myoblast differentiation in mouse C2C12 cells assessed as increase in MHC expression after 2 days by DAPI staining based immunofluorescence assay; type: functional, cell-based
[7] = system: C2C12; test: Induction of myoblast differentiation in mouse C2C12 cells assessed as cylinder shaped multinucleated myotubes after 2 days by DAPI staining based immunofluorescence assay; type: functional, cell-based
[8] = molecular target: MAP kinase p38 (Mus musculus) (UniProt P47811+O08911+Q9WUI1+Q9Z1B7); test: Induction of p38 MAPK phosphorylation in mouse C2C12 cells at 0.1 nM after 2 days by Western blot analysis relative to control; type: cell-based
[9] = molecular target: RAC-alpha serine/threonine-protein kinase (Mus musculus) (UniProt P31750); test: Induction of Akt phosphorylation in mouse C2C12 cells up to 10 nM after 2 days by Western blot analysis; type: cell-based
Sequence of RAC-alpha serine/threonine-protein kinase (Mus musculus) (P31750 whole entry): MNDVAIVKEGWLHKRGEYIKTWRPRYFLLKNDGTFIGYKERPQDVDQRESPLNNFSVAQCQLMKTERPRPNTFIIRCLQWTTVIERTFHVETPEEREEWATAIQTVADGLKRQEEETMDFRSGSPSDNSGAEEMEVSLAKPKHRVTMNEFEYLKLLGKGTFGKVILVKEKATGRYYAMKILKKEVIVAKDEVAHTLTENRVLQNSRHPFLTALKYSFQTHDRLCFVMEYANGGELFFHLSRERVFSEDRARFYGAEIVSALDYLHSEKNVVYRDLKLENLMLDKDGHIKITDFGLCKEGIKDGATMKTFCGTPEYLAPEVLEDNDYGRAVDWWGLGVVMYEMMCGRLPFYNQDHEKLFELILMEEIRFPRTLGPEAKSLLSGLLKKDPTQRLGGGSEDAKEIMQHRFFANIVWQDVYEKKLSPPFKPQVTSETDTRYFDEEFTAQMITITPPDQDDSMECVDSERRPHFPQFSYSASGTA

| fold change (FC) [8] | Activity [9] | Structure (SMILES) | Activity [1] | Activity [2] | Activity [3] | Activity [4] | Activity [5] | Activity [6] | Activity [7] |
| --- | --- | --- | --- | --- | --- | --- | --- | --- | --- |
| – | – | COc1cc2c(cc1OC)-c1cc3ccc4c(c3c[n+]1CC2)OCO4 | Active | Non-Toxic | Active | – | – | – | – |
| – | – | OC1c2c(ccc3c2OCO3)C=C2c3cc4c(cc3CCN21)OCO4 (centres undefined) | Active | Non-Toxic | Active | – | – | – | – |
| – | – | COc1ccc2cc3[n+](cc2c1OC)CCc1cc2c(cc1-3)OCO2 [BERBERINE] | Active | Non-Toxic | Active | – | – | – | – |
| – | – | COc1cc2c(cc1O)CC[n+]1cc3c(OC)c(OC)ccc3cc1-2 [JATRORRHIZINE] | Active | Non-Toxic | Active | – | – | – | – |
| 6 | Active | COc1ccc2c(c1O)-c1c(O)c(OC)cc3c1[C@H](C2)[N+](C)(C)CC3 [MAGNOFLORINE] | Active | Non-Toxic | Active | Dose-dependent effect | Dose-dependent effect | Dose-dependent effect | Dose-dependent effect |
| – | – | COc1cc2c(cc1OC)-c1cc3ccc(OC)c(OC)c3c[n+]1CC2 [PALMITINE] | Active | Non-Toxic | Active | – | – | – | – |
